Experimental findings from paper PMC2912498 (Cancer research, 2010) are described below.

The subject of test [1] is GSK-3 dependent Tau phosphorylation. Type of test: cell-based, human.
Test [2] deals with TCF-dependent transcription. Type of test: cell-based, human.
In a further test the test system is HT29 (APC mutant). The class given is cell-based, human. The note with it: read-out: HT29 (APC mutant) GI50; 72h.
Test [3] deals with HCT116 (oncogenic β-catenin). Type of test: cell-based, human. The note with it: read-out: HCT116 (oncogenic β-catenin) GI50; 72h.
Test [4] deals with β-catenin. The class given is cell-based, mouse.
The test system of a further test is Xenopus laevis embryos. The class given is in vivo. The note with it: added at the 4-16 cell stage.
In the next test the test system is Tyrosine Phosphatase. Type of test: biochemical.
The subject of another test is c-myc promoter. The class given is cell-based, human.
The next test relates to PP2A. Type of test: biochemical.
A further test deals with SNU475 (Axin mutant). The class given is cell-based, human. The note with it: read-out: SNU475 (Axin mutant) GI50; 96h.
The test system of test [5] is HCT116 human colon cancer cell. The class given is cell-based.
The test system of a further test is Zebrafish embryos. The class given is in vivo. The note with it: added at the 16-cell stage.
For test [6], the system named is free β-catenin. Type of test: cell-based, human.
The test system of test [7] is TCF-dependent transcription. Type of test: cell-based, human. The note with it: read-out: Reporter IC50; 7dF3 reporter activity.
Test [8] has as its system free β-catenin. Type of test: cell-based, human. The note with it: SW480 cells.
Another test deals with LEF-1 mRNA. The class given is cell-based, human.
The test system of a further test is recombinant GSK3. The class given is biochemical.
Another test has as its system SW480 (APC mutant). Type of test: cell-based, human. The note with it: read-out: SW480 (APC mutant) GI50; 72h.
Test [9] has as its system β-catenin. Type of test: cell-based, mouse. This is another data set of the same source.
A further test concerns PP1. The class given is biochemical.
In test [10] the test system is TCF-dependent transcription. Type of test: cell-based, human. This is another data set of the same source.
A further test concerns survivin promoter. The class given is cell-based, human.
The test system of a further test is CCD841Co (Control). The class given is cell-based, human. The note with it: read-out: CCD841Co (Control) GI50; 96h; >> = no growth inhibition at the highest concentration tested.
Test [11] concerns U2OS GFP-β-catenin human osteosarcoma cells. The class given is cell-based.

Read-outs that look alike come from different tables or passages of the source.

As for “6-bromoindirubin-3′-oxime [BIO, reference compound]”, the “GSK-3 dependent Tau phosphorylation on Thr-181” value in [1] (HEK293) is given as “reduce GSK-3 dependent Tau phosphorylation on Thr-181”.

With CCT031374, the “TCF-dependent transcription induced by stabilized β-catenin (N-terminal deletion of 89 amino acids)” value in [2] is on record as “blocked TCF-dependent transcription”. Besides, in the test with HT29 (APC mutant), the concentration for 50% growth inhibition (GI50) stood at 11.5 µM. For the same substance, the GI50 in test [3] was determined as 13.9 µM. In the test with β-catenin [4], the “BIO-induced accumulation / levels of β-catenin” value is on record as “prevented BIO-induced accumulation of β-catenin”; the “degradation of endogenous wild-type β-catenin stabilized by BIO” value is on record as “increased the degradation”; the “degradation of β-catenin stabilized by Wnt-3A and LiCl” value is on record as “resistant to degradation”; the “degradation of β-catenin stabilized with MG132” value is on record as “not degraded”. In addition, in the test on β-catenin [4], the “nuclear and cytosolic β-catenin pools” value is “reduction in both nuclear and cytosolic β-catenin pools”; the “time to reduce levels of BIO-stabilized β-catenin” value was no more than 60 min; the “β-catenin N-terminal phosphorylation” value is reported as “did not increase β-catenin N-terminal phosphorylation”; the “β-catenin degradation products characteristic of calpain-induced proteolysis” value was “failed to induce β-catenin degradation products”. Besides, in the test on Xenopus laevis embryos, the “effect on Xenopus embryo development” value was “did not show clear responses”. Moreover, the “Tyrosine Phosphatase enzyme activity” value in the test with Tyrosine Phosphatase is “no activity”. In addition, the “activity against c-myc promoter luciferase reporter” value in the test on c-myc promoter is “showed activity”. In addition, in the test with PP2A, the PP2A enzyme activity entry is “no activity”. Further, the 50% growth inhibitory concentration (GI50) in the test on SNU475 (Axin mutant) is 9.6 µM. Moreover, in test [5], the “apoptosis shown by caspase 3 activity” value was “inducing apoptosis” and the “caspase activity relative to the other compounds” value is “almost two times more caspase activity than the other compounds”. Besides, the “reversal of the BIO block of Tau phosphorylation” value in test [1] (HEK293, BIO plus 20μM CCT031374) is “largely failed to reduce the BIO block of Tau phosphorylation”. For the same substance, the “effect on Zebrafish embryo development” value in the test on Zebrafish embryos is reported as “did not show clear responses”. In addition, the “free β-catenin levels” value in the test on free β-catenin [6] was “blocked free β-catenin levels”. For the same substance, in test [7], the IC50 worked out at 6.1 µM. The “free β-catenin levels” value in the test on free β-catenin [8] is reported as “not altered”. Moreover, the “endogenous LEF-1 mRNA levels” value with LEF-1 mRNA is given as “showed activity against endogenous LEF-1 mRNA levels”. In the test with recombinant GSK3, the “inhibition of recombinant GSK3” value was “did not inhibit”. Besides, the 50% growth inhibitory concentration (GI50) with SW480 (APC mutant) stood at 13.2 µM. Also, the “time to increased β-catenin degradation (pulse chase)” value in the test on β-catenin [9] is no more than 10 min. For the same substance, the PP1 enzyme activity entry in the test with PP1 was “no activity”. Further, the “TCF-dependent transcription (Topflash)” value in test [10] is listed as “reduced TCF-dependent transcription”. In addition, the “activity against survivin promoter luciferase reporter” value with survivin promoter is given as “showed activity”. The 50% growth inhibitory concentration (GI50) in the test with CCD841Co (Control) was greater than 44 µM. Also, the “formation of GFP-β-catenin aggregates” value in test [11] is recorded as “induced formation of GFP-β-catenin aggregates”.
